# In patent US10391148B2, “Method of prevention and inhibition of preterm labor” (Wayne State University, priority 2016, dated 2019):
# Entries after “also recorded” stand apart in the source; their conditions may differ.
# Legend:
# [1] = tested on: PIBF1 expression by human peripheral blood B cells; test: PIBF1 expression by purified human peripheral blood IgD+ B cells after stimulation (qRT-PCR, Western Blot); assay type: cell-based; settings: 2 days (3 days in FIG. 4A), 100 ng/ml cytokine, 1 ng/ml TGF-β, 1 μM progesterone, vs medium control
# Description: Placentas and the attached chorioamniotic membranes were obtained after delivery. In each case, several random strips of the chorioamniotic membranes located at different regions of the choriodecidua were embedded in rolls in optimal cutting temperature (OCT) compound (Sakura Finetek 4583), frozen in liquid nitrogen and stored at −80° C. for immunofluorescence analysis. Choriodecidual tissues were scraped from the chorionic membranes that had blood clots removed, and digested with 0.2% (w/v) Clostridium histolyticum Collagenase V (Sigma-Aldrich C9263) in RPMI-1640 with 10% fetal bovine serum (Thermo Fisher Scientific 26140-079) at 37° C. with gentle agitation for 45 minutes. Cells released from the tissues were cleaned by being passed through a 100 μm cell strainer and centrifuged on a Ficoll gradient. Peripheral blood leukocytes of anonymous healthy donors after leukophoresis were obtained from the Southeast Michigan branch of American Red Cross. Peripheral blood mononuclear cells (PBMCs) were isolated using Histopaque-1077 (Sigma-Aldrich 10771) following the manufacturer's instruction. Red blood cells were lysed using an ammonium-chloride-potassium (ACK) lysing buffer (Thermo Fisher Scientific A1049201). IgD+B cells were purified from PBMCs by magnetic-activated cell sorting (MACS) with a biotinylated goat F(ab′)2 anti-human IgD antibody and anti-biotin magnetic microbeads (Miltenyi Biotec) as described in Chen, K., et al., Nat Immunol 10, 889-898 (2009). The purity of the IgD+B cells ranged from 92% to 99% as determined by flow cytometry with CDI9 staining. CD19+ B cells were similarly separated from PBMCs using a biotinylated mouse anti-human CD19 (clone HIB19) antibody, with purity ranging from 93% to 97% as determined by flow cytometry using a different clone (SJ25C1) of CD19 antibody.
# Human PMBCs, IgD+B cells, CD19+ B cells or PBMCs depleted of CD19+ B cells were cultured in RPMI-1640 medium (Sigma-Aldrich R8578) supplemented with 2 mM L-glutamine, 2 mg/ml NaHCO3, 100 U/ml penicillin, 100 µg/ml streptomycin, […] amphotericin B and 10% FBS. Cells were stimulated with 100 ng/ml IL-33 (R&D 3625-IL-010 or Peprotech 200-33), 1 μM progesterone (Sigma-Aldrich P0130), IL-4 (Peprotech 200-04), IL-10 (Peprotech 200-10), IL-17A (Peprotech 200-17), IL-25 (R&D 1258-IL-025), IFN-γ (Peprotech 300-02), TGF-β (R&D 240-B-010/CF), TNF (210-TA-020) or TSLP (Peprotech 300-62). RNA or protein expression was analyzed after 2 days.
# RNA was extracted from cells or tissues using TRIzol (Thermo Fisher Scientific 15596026). cDNA synthesis was performed using the Superscript III first strand synthesis system (Thermo Fisher Scientific 188080051) in a thermocycler (Bio-Rad T100). qRT-PCR was performed with Power SYBR Green PCR Master Mix (Thermo Fisher Scientific 4367660) in a StepOnePlus instrument (Applied Biosystems) using pairs of sense and anti-sense primers targeted at the genes of interest (Tables 2, 3).
# Cells were pelleted and washed twice with cold PBS and lysed in a pH 8.0 protein extraction buffer containing 20 mM Tris-HCl, 150 mM NaCl, 1% IGEPAL CA-630 (Sigma-Aldrich 18896), 0.1% sodium dodecyl sulfate (SDS), 1 mM EDTA and protease and phosphatase inhibitor cocktail on ice for 30 minutes. For protein extraction from mouse uterus and human chorioamniotic membranes, the tissue was washed twice with PBS to remove blood and homogenized in the above protein extraction buffer with a tissue tearor (Biospec Products 985370), followed by 3 rounds of sonication at 30% maximum power for 5 seconds per round using a sonifier (Thermo Fisher Scientific Q500). Supernatants were collected after centrifugation, heated at 98° C. in an SDS buffer with 4% β-mecaptoethanol for 5 minutes to denature proteins. Proteins were resolved in 4-20% Bis-Tris gels (GenScript M42012) and transferred to 0.45 μm nitrocellulose membranes (Bio-Rad 1620115). […]
# [2] = tested on: pregnant female μMT mice (LPS-induced PTL); test: LPS-induced preterm labor in pregnant μMT mice: preterm delivery and neonatal/fetal mortality; assay type: in vivo, mouse; settings: read on gd 17.5, fPIBF1 1 μg (800 ng in method), cPIBF1 300 ng, vs PBS; for rate of preterm delivery (PTL): protein intravenous on gd 16.5 three hours before 5 μg intraperitoneal LPS
# Description: Six to ten-week old virgin female C57BL/6 (WT) or μMT mice were mated with male Balb/c mice. Female mice were examined daily in the early morning for the presence of a vaginal plug, which denoted gestational day (gd) 0.5. In the late morning of gd 16.5, pregnant female mice were intraperitoneally administered with 200 μl sterile PBS or 200 μl sterile PBS containing 0.5, 2.5, 5, 10 or 20 μg lipopolysaccharides (LPS) from Salmonella enterica serotype typhimurium (Sigma-Aldrich L6143). The various doses of LPS were given to the mice randomly. In some experiments, splenic B cells of 5 to 8-week old virgin female WT or IL-10−/− mice were purified using a mouse resting B cell negative isolation kit (Miltenyi Biotec 130-090-862) to 94% to 99% purity as determined by CD19 staining. 107 purified B cells were adoptively transferred in 200 μl sterile PBS into pregnant female μMT mice on gd 14.5 prior to LPS administration on gd 16.5. In some other experiments, 200 μl sterile PBS or 200 μl sterile PBS containing 800 ng recombinant full-length PIBF1 (fPIBF1) (aa 1-757 (SEQ ID NO:11, with an N-terminal glutathione-S-transferase (GST) tag of 232 amino acids, Abnova H00010464-P01) or 300 ng of a recombinant C-terminal fragment of PIBF1 (cPIBF1) (aa 660-755 (SEQ ID NO:12), with an N-terminal glutathione-S-transferase (GST) tag of 232 amino acids, Abnova H00010464-Q01) was intravenously administered to pregnant female μMT mice on gd 16.5 three hours prior to intraperitoneal LPS administration. 24 hours after LPS administration, female mice were examined for delivery and death of delivered pups if delivery occurred. They were then sacrificed for the examination of neonatal/fetal mortality, which was calculated as the total number of dead delivered pups and dead fetuses divided by the total number of implantation sites. Uteri were collected, briefly washed in PBS and processed for RNA and protein extraction or flow cytometry. The people performing the analysis were not blinded to the genotype or treatment of the mice.
# The sample size was calculated based on the effect size derived from preliminary data at 5% significance level and 80% power using the software G*Power 3.1. Sample availability exceeded the estimated sample size. Results are expressed as mean±S.E.M. Percentage data were subjected to square root transformation prior to statistical analysis to verify test assumptions of equal variance. Statistical difference in the rate of PTL between different strains of mice or different treatment groups was assessed by Fisher's exact test. Statistical difference in neonatal/fetal mortality was assessed by Mann-Whitney U test. For flow cytometry and qRT-PCR data, Shapiro-Wilk test was used to determine the normality of the data. Statistical significance was assessed by Student's t-test for normally distributed data and Mann-Whitney U test for non-normally distributed data. p values <0.05 were considered statistically significant.
Molecule,"PIBF1 expression by human peripheral blood B cells (PIBF1 transcript fold change, Western Blot) [1]",other results
"TGF-β: cytokine, R&D 240-B-010/CF [reference compound]",had no effect; also recorded: do not induce,
"CC(=O)[C@H]1CC[C@H]2[C@@H]3CCC4=CC(=O)CC[C@]4(C)[C@H]3CC[C@]12C [progesterone, reference compound]",known inducer of PIBF1,
"TSLP: T helper type 2 cytokine, Peprotech 300-62 [reference compound]",only IL-33 induced PIBF1 expression; also recorded: do not induce,
"cPIBF1: recombinant C-terminal fragment of PIBF1, aa 660-755, SEQ ID NO:12, N-terminal GST tag, Abnova H00010464-Q01",,neonatal/fetal mortality ([2]; protein intravenous on gd 16.5 before 5 μg intraperitoneal LPS): neither mitigated; rate of preterm delivery (PTL) [2]: neither mitigated; rate of preterm delivery (PTL) ([2]; listed as C-terminal fragment of PIBF1): does not protect
"IL-25: T helper type 2 cytokine, R&D 1258-IL-025 (protein, UniProt Q9H293 33-177, looked up) Interleukin-25: YSHWPSCCPSKGQDTSEELLRWSTVPVPPLEPARPNRHPESCRASEDGPLNSRAISPWRYELDRDLNRLPQDLYHARCLCPHCVSLQTGSHMDPRGNSELLYHNQTVFYRRPCHGEKGTHKGYCLERRLYRVSLACVCVRPRVMG",only IL-33 induced PIBF1 expression; also recorded: do not induce,
"IL-33: interleukin 33 cytokine (R&D 3625-IL-010 or Peprotech 200-33); human IL-33 is SEQ ID NO: 5 (protein, listed as Homo sapiens) MKPKMKYSTNKISTAKWKNTASKALCFKLGKSQQKAKEVCPMYFMKLRSGLMIKKEACYFRRETTKRPSLKTGRKHKRHLVLAACQQQSTVECFAFGISGVQKYTRALHDSSITGISPITEYLASLSTYNDQSITFALEDESYEIYVEDLKKDEKKDKVLLSYYESQHPSNESGDGVDGKMLMVTLSPTKDFWLHANNKEHSVELHKCEKPLPDQAFFVLHNMHSNCVSFECKTDPGVFIGVKDNHLALIKVDSSENLCTENILFKLSET",promoted PIBF1 expression,
"IFN-γ: cytokine, Peprotech 300-02 (protein, UniProt P01579 24-161, looked up) Interferon gamma: QDPYVKEAENLKKYFNAGHSDVADNGTLFLGILKNWKEESDRKIMQSQIVSFYFKLFKNFKDDQSIQKSVETIKEDMNVKFFNSNKKKRDDFEKLTNYSVTDLNVQRKAIHELIQVMAELSPAAKTGKRKRSQMLFRG",had no effect; also recorded: do not induce,
"IL-4: T helper type 2 cytokine, Peprotech 200-04 (protein, UniProt P05112 25-153, looked up) Interleukin-4: HKCDITLQEIIKTLNSLTEQKTLCTELTVTDIFAASKNTTEKETFCRAATVLRQFYSHHEKDTRCLGATAQQFHRHKQLIRFLKRLDRNLWGLAGLNSCPVKEANQSTLENFLERLKTIMREKYSKCSS",only IL-33 induced PIBF1 expression; also recorded: do not induce,
"IL-10: cytokine, Peprotech 200-10 (protein, UniProt P22301 19-178, looked up) Interleukin-10: SPGQGTQSENSCTHFPGNLPNMLRDLRDAFSRVKTFFQMKDQLDNLLLKESLLEDFKGYLGCQALSEMIQFYLEEVMPQAENQDPDIKAHVNSLGENLKTLRLRLRRCHRFLPCENKSKAVEQVKNAFNKLQEKGIYKAMSEFDIFINYIEAYMTMKIRN",had no effect; also recorded: do not induce,
